Test results: ChEMBL document CHEMBL1201862, “PubChem BioAssay data set” (2004)
Activity calls are given as the source filed them.

Key:
[1] = target: Adenosylmethionine-8-amino-7-oxononanoate aminotransferase (Mycobacterium tuberculosis, UniProt P9WQ81); assay: Mycobacterium tuberculosis BioA enzyme inhibitor Measured in Biochemical System Using Plate Reader - 2163-02_Inhibitor_Dose_CherryPick_Activity.; type: functional, Mycobacterium tuberculosis UT205
[2] = bead-based luminescence quenchers, dual-tagged ARNT – biochemical, AlphaScreen, cherry-pick, artefact control for ARNT-TACC3 interaction inhibitor project, dose response (AID 651705); type: functional;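 note: AlphaScreen bead proximity signal that flags compounds interfering with the detection technology; potency reflects signal decrease which marks the compound as an assay artifact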
[3] = target: Cytochrome P450 3A4 (Homo sapiens, UniProt P08684);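 note: CYP3A4 tested as one member of a cytochrome P450 panel screen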
Cytochrome P450 3A4, sequence (P08684 whole entry): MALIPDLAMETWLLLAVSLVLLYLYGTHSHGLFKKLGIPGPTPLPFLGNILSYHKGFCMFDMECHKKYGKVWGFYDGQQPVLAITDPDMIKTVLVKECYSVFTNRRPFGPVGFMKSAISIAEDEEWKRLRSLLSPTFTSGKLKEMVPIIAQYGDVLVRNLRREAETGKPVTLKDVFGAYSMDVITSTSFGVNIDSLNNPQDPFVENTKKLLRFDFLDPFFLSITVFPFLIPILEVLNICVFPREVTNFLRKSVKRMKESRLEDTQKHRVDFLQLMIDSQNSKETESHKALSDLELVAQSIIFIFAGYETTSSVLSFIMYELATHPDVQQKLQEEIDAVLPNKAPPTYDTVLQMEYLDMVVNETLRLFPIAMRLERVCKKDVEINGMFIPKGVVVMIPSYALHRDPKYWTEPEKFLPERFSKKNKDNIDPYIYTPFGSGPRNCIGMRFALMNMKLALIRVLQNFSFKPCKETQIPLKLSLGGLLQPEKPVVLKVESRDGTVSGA

[4] = system: Escherichia coli; assay: microbe, parasite or virus in culture
[5] = inhibition of ARNT PAS-B/TACC3 complex formation – biochemical, AlphaScreen, cherry-picked samples, confirmation (AID 651703); type: functional, Homo sapiens;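 note: His-tagged ARNT PAS-B domain paired with GST-TACC3 E629A dimer coactivator fragment; potency of inhibitors that break up the complex and lower AlphaScreen signal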
[6] = target: T1, Replicative DNA helicase DnaB (Mycobacterium tuberculosis, UniProt P9WMR3); assay: DnaB intein splicing inhibitors, dose response, biochemical, cell-free fluorescence (AID 449749); type: functional
T1 sequence (P9WMR3 whole entry): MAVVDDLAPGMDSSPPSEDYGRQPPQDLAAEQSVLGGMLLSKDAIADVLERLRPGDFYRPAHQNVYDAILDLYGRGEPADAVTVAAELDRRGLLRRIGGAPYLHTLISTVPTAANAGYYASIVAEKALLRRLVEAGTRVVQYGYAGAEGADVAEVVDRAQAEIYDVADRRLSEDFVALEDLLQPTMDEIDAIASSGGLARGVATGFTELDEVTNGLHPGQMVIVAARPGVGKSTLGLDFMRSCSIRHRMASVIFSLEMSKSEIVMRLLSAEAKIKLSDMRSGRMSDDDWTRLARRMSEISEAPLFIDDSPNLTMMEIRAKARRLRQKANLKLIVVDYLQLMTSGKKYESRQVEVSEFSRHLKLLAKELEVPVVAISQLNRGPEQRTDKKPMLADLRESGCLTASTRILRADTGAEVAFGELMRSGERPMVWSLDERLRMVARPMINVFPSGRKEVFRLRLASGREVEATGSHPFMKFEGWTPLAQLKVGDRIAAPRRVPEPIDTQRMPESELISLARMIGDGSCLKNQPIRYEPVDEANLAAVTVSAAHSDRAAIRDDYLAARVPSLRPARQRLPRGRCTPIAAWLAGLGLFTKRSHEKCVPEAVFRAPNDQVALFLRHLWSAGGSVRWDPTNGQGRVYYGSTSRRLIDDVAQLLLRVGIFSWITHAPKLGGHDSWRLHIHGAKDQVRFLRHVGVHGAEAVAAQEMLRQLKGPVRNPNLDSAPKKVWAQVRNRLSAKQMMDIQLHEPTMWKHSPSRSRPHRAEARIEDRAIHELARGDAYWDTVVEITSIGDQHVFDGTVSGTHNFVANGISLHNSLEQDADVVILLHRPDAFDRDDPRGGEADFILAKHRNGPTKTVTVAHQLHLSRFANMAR

[7] = system: Vero; assay: viability of Vero cells under compound – cytotoxicity control for flavivirus capping enzyme inhibitors (AID 588742); type: functional; details: Chlorocebus sabaeus
[8] = target: T2, Protein RecA (Mycobacterium tuberculosis, UniProt P9WHJ3); assay: Fluorescence Cell-Free Homogeneous Dose Retest to Identify Inhibitors of RecA-Intein Splicing Activity. [Related pubchem assays (depositor defined):AID2097, AID2223, AID489010, AID492950]; type: functional
T2 sequence (P9WHJ3 whole entry): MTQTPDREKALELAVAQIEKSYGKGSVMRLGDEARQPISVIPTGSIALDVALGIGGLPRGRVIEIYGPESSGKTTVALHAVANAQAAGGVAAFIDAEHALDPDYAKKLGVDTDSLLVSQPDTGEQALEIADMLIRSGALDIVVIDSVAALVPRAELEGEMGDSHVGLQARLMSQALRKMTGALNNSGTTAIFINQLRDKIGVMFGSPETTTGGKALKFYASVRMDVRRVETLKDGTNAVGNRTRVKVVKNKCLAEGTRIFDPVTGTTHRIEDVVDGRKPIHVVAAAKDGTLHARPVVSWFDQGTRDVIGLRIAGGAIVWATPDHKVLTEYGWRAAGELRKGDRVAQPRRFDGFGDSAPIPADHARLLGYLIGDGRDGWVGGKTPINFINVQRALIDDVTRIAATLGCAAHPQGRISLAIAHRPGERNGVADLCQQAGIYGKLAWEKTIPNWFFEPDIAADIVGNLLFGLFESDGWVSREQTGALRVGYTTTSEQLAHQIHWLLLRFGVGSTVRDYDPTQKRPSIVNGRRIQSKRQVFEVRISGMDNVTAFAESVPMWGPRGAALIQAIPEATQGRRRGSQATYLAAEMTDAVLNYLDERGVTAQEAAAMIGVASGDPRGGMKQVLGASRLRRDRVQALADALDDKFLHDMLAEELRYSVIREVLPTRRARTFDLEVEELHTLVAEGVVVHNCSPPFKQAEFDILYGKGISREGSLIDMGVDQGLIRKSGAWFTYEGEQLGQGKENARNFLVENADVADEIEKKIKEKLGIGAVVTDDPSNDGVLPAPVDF

[9] = target: Genome polyprotein (dengue virus type 2, UniProt P29990); assay: flavivirus cap methylation enzyme inhibition – biochemical, confirmation dose response, primary screen (AID 588689); type: functional
Genome polyprotein, sequence (P29990 2492-3391 limits assumed): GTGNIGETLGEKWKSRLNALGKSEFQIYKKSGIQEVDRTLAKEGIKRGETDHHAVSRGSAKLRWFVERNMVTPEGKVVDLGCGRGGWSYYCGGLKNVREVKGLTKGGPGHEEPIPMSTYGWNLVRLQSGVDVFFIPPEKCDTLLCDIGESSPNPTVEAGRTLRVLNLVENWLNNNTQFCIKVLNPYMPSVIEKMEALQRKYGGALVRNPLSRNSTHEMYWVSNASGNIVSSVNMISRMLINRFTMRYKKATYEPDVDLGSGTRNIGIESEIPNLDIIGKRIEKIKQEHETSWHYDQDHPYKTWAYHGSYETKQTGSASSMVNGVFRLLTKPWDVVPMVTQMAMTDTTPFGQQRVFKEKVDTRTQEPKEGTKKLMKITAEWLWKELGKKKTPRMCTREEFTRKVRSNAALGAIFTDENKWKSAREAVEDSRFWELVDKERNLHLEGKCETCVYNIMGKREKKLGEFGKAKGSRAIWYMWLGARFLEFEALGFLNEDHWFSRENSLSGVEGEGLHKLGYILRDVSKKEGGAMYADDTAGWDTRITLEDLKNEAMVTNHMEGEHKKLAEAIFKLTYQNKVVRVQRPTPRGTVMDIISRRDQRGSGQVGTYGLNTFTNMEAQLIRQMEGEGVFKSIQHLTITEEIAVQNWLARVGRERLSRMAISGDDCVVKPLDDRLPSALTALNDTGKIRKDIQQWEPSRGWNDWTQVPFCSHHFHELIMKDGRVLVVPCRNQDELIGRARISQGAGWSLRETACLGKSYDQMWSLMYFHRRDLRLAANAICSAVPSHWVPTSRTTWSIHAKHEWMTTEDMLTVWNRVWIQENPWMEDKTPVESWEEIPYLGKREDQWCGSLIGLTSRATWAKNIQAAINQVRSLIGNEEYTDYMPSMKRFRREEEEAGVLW

[10] = reduction of Shn3 3'UTR-driven luciferase in osteoblasts – cell-based, Clone20 osteoblasts, firefly luciferase, cherry-picked, dose response (AID 624132); type: functional;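 note: firefly luciferase luminescence from reporter carrying the Shn3 3'UTR in osteoblasts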
[11] = loss of viability in HepG2 cells – cell-based, CellTiter-Glo, cherry-picked, cytotoxicity control for Shn3 inhibitor project, dose response (AID 624134); type: functional
[12] = non-specific 3'UTR reporter inhibition in Clone20-Shn3RL – cell-based, Renilla luciferase, cherry-picked, counter-screen for Shn3 inhibitor project, dose response (AID 624133); type: functional
[13] = target: Hepatocyte nuclear factor 4-alpha (Homo sapiens, UniProt P41235); type: functional, cell-based;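 note: biochemical luminescence-based dose-response counterscreen measuring inhibition of HNF4 dimerization, run alongside a screen for blockers of ABHD5–perilipin-5 interaction; split luciferase complementation of HNF4 fusion proteins in cell lysate measuring dimerization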
Hepatocyte nuclear factor 4-alpha, sequence (P41235 whole entry, the tested form may be a part): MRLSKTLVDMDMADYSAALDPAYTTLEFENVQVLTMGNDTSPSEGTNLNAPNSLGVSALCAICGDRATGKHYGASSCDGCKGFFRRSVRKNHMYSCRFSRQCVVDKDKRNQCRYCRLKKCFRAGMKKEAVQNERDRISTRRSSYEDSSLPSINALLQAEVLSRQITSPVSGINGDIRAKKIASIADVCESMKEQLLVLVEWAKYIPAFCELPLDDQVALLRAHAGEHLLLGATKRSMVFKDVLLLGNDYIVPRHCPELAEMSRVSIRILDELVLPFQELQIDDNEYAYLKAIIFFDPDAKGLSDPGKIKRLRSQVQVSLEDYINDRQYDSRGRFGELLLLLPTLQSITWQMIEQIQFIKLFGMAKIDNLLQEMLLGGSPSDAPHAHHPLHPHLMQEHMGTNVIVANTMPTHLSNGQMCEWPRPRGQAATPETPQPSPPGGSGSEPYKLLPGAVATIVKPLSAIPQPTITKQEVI

[14] = target: T3, High affinity choline transporter 1 (Homo sapiens, UniProt Q9GZV3); assay: human choline transporter blockers, potency – cell-based, 5-point CRC, membrane potential dye, dose response (AID 504840); type: functional
T3 sequence (Q9GZV3 whole entry): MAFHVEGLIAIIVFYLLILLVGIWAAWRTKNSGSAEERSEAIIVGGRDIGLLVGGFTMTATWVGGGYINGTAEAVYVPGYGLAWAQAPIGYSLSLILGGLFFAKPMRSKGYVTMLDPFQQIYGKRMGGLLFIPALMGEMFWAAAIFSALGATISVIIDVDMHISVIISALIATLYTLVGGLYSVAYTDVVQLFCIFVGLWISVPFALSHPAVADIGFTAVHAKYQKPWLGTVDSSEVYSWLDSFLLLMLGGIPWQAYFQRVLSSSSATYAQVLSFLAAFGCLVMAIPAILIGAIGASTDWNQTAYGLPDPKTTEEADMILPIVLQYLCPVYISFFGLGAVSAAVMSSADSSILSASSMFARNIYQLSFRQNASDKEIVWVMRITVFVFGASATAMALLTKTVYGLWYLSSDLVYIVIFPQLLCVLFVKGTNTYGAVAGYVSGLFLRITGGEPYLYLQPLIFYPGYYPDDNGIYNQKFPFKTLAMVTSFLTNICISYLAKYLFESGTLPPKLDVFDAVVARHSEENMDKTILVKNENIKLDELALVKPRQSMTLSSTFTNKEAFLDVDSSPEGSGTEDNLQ

[15] = target: T3, High affinity choline transporter 1; assay: human choline transporter blockers, potency – cell-based, 10-point CRC, membrane potential dye, dose response (AID 588401); type: functional;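 note: membrane potential dye fluorescence of choline-evoked depolarization via CHT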
[16] = target: T3, High affinity choline transporter 1; assay: human choline transporter radiolabel uptake blockers – cell-based, 3H-choline uptake, CHT LV-AA trafficking mutant, CRC, dose response (AID 602208); type: functional
[17] = target: T4, Aryl hydrocarbon receptor (Homo sapiens, UniProt P35869); details: Potency;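 note: confirmatory quantitative high-throughput screen measuring activation of the AhR signaling pathway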
T4 sequence (P35869 whole entry): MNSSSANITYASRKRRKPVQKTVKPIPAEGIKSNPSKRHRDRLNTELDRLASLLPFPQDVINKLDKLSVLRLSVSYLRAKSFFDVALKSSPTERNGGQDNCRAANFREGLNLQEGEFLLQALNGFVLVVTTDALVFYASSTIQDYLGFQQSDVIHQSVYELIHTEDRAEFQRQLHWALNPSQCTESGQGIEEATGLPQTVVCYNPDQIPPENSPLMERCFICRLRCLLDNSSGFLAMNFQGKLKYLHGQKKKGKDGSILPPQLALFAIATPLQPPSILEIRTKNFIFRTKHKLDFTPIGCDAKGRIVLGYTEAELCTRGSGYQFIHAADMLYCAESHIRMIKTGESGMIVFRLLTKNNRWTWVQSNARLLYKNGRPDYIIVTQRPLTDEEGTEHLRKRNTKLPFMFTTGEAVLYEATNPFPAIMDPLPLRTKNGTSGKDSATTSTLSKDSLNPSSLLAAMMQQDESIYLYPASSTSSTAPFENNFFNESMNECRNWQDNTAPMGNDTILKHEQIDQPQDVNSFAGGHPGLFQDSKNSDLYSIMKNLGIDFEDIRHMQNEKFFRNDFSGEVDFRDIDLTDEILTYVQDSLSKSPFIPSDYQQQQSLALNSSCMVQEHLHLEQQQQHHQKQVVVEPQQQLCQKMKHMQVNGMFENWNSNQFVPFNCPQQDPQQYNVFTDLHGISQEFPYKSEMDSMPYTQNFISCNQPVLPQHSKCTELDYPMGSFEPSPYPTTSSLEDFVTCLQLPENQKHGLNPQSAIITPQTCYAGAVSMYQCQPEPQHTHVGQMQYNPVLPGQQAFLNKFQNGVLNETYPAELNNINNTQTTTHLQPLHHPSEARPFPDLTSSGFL

[18] = target: Potassium voltage-gated channel subfamily KQT member 2 (Rattus norvegicus, UniProt O88943); assay: blockers of KCNQ2 channel current – cell-based, automated electrophysiology, set II, rat KCNQ2, dose response (AID 588637); type: functional
Potassium voltage-gated channel subfamily KQT member 2, sequence (O88943 whole entry): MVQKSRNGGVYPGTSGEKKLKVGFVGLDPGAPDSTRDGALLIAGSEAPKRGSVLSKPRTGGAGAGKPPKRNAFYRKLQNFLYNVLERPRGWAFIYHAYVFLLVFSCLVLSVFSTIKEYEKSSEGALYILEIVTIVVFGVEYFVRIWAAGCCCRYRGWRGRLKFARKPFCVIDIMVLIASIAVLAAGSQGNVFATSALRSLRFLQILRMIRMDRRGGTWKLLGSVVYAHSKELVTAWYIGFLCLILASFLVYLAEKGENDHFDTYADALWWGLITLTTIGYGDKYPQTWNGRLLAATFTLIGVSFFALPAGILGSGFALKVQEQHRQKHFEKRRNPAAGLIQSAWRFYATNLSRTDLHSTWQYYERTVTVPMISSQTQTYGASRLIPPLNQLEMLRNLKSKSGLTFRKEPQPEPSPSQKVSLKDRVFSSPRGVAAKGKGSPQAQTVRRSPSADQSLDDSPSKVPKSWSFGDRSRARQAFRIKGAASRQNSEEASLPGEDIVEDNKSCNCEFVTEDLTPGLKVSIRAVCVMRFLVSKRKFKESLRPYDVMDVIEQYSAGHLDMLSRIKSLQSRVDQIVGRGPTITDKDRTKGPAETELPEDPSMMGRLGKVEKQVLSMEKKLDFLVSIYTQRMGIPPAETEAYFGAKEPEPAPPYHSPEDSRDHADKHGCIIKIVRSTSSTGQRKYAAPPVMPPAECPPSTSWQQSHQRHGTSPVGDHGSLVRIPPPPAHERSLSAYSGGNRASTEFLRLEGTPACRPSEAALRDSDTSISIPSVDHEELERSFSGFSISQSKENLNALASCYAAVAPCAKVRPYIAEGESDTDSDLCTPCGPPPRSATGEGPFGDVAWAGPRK

[19] = target: Tyrosine-protein phosphatase non-receptor type 11 (Homo sapiens, UniProt Q06124); assay: PTPN11 enzyme inhibitors – biochemical, selectivity assay for STEP inhibitor project, dose response (AID 602367); type: functional; details: read-out: IC50_Mean
Tyrosine-protein phosphatase non-receptor type 11, sequence (Q06124 whole entry): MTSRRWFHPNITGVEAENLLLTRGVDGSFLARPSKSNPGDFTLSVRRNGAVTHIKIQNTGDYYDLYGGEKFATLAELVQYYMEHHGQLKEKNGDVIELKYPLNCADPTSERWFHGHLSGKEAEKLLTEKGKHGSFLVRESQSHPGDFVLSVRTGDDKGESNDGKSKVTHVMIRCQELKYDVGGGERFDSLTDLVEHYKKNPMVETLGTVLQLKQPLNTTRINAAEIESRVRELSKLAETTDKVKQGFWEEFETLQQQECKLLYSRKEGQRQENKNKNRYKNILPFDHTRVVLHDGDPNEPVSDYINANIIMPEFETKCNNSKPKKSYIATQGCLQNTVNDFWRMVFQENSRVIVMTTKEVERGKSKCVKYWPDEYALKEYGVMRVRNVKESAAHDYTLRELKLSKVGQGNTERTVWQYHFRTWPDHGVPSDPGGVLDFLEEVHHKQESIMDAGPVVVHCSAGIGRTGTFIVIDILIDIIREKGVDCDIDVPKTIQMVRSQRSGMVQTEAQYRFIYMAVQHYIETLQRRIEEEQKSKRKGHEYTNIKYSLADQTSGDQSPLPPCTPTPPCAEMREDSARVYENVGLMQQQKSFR

[20] = target: Tyrosine-protein phosphatase non-receptor type 5 (Homo sapiens, UniProt P54829); assay: PTPN5 enzyme inhibition – biochemical, fluorescence intensity, uHTS hits, confirmation (AID 602372); type: functional; details: read-out: IC50_Mean
Tyrosine-protein phosphatase non-receptor type 5, sequence (P54829 whole entry): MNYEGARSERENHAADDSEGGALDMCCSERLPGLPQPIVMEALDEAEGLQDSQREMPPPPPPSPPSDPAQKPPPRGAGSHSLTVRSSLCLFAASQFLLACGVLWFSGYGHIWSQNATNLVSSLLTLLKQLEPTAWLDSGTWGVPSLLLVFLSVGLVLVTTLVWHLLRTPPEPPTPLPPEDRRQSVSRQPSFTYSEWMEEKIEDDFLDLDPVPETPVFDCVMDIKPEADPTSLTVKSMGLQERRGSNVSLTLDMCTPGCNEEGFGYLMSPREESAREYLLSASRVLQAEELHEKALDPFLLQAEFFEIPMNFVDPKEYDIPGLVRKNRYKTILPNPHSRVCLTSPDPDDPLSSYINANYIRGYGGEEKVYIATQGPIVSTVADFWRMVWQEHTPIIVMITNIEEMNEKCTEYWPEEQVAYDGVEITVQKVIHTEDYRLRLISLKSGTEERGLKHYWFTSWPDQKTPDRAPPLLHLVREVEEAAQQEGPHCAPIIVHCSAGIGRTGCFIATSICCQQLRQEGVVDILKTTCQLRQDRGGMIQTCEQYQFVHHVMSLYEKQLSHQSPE

[21] = target: Dual specificity protein phosphatase 3 (Homo sapiens, UniProt P51452); assay: VHR phosphatase inhibition, dose response, selectivity assay for STEP inhibitor project, biochemical (AID 602374); type: functional; details: read-out: IC50_Mean
Dual specificity protein phosphatase 3, sequence (P51452 whole entry): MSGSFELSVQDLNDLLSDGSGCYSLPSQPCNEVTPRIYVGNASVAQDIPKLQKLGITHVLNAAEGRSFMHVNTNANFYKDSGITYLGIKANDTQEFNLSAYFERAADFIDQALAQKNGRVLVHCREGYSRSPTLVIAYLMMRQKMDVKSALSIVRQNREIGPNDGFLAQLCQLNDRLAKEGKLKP

[22] = target: T5, Calpain-2 catalytic subunit (Sus scrofa, UniProt P43367); assay: m-calpain protease blockers, concentration series – biochemical, fluorogenic peptide substrate, dose response (AID 1420); type: functional
T5 sequence (P43367 whole entry): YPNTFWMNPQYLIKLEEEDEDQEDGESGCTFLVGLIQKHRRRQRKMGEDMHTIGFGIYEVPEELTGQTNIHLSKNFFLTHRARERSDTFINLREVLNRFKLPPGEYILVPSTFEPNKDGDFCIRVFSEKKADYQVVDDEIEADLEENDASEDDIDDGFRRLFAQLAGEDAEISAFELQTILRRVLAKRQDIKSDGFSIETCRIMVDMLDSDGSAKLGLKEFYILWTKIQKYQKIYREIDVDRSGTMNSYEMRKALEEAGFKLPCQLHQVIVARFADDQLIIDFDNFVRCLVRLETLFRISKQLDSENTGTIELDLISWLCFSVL

[23] = target: T6, Microphthalmia-associated transcription factor (Homo sapiens, UniProt O75030); assay: reducers of TRPM1 reporter luminescence, concentration series – cell-based, SK-MEL-5, cherry-picked, set 3, MITF inhibitor project, dose response (AID 493073); type: functional;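 note: SK-MEL-5 melanoma cells with luciferase driven by the MITF target TRPM1 promoter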
T6 sequence (O75030 whole entry): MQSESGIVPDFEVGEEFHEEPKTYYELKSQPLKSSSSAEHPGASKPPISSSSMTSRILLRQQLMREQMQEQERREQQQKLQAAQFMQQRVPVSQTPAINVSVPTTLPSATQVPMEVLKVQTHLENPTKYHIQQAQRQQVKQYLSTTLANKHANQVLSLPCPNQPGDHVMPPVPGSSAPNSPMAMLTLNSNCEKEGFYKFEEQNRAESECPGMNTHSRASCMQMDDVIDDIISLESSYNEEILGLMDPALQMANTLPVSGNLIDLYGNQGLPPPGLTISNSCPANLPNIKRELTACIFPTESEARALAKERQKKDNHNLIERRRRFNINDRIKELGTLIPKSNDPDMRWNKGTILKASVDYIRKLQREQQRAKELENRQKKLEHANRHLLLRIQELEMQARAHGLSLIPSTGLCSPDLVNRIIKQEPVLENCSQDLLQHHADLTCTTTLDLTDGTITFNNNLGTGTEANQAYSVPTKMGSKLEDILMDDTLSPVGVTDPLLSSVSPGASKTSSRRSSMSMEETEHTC

[24] = target: Mitochondrial peptide methionine sulfoxide reductase (Bos taurus, UniProt P54149); assay: Absorbance-based biochemical high throughput dose response assay for activators of Methionine sulfoxide reductase A (MsrA).; type: functional
Mitochondrial peptide methionine sulfoxide reductase, sequence (P54149 whole entry): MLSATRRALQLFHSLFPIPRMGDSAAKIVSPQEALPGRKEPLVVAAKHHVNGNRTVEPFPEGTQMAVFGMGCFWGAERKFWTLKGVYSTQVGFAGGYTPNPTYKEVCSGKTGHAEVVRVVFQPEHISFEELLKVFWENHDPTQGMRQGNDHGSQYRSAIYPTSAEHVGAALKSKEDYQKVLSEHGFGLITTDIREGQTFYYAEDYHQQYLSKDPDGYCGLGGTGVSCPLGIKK

Adenosylmethionine-8-amino-7-oxononanoate aminotransferase, sequence (P9WQ81 whole entry): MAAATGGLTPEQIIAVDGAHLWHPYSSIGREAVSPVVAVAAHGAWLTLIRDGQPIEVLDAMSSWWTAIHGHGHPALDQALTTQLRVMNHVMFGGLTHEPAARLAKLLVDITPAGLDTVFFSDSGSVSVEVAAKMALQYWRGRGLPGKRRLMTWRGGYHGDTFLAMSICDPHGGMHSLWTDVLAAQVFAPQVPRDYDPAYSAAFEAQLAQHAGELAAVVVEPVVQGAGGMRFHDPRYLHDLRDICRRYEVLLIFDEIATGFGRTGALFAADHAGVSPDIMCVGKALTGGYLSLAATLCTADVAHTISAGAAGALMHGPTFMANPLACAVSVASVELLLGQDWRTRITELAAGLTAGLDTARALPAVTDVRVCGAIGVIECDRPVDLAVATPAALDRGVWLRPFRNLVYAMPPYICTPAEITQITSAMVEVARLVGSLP

CC(=O)c1ccc(N2CCN(C(=O)Cc3ccccc3)CC2)c(F)c1
AC50 [1]: 4.97 µM (active)

Cn1c(-c2ccccc2)cnc1N
AC50 [2]: 102 µM (active)
AC50 [3]: 28.2 µM (inconclusive)
AC50 [4]: 22.7 µM (active)

C/C(CC(=O)NCc1ccccc1Cl)=N/NC(=O)c1ccccn1
AC50 [5]: 77.8 µM (active)

CSc1nnc(NC(=O)c2nc(S(=O)(=O)Cc3ccccc3)ncc2Cl)s1
AC50 [6]: 5.23 µM (active)
CC50 [7]: 31.1 µM (active)
EC50 [8]: 4.73 µM (active)
IC50 [9]: 50.6 µM (active)
AC50 [10]: 1.35 µM (active)
AC50 [11]: 67.4 µM (active)
AC50 [12]: 14.5 µM (active)
IC50 [13]: 5.52 µM (active)

COc1ccc(C(=O)NC(C)Cc2cnccn2)cc1OC1CCN(C(C)C)CC1 (stereo unspecified)
IC50 [14]: 9.9 µM (active)
IC50 [15]: 4.47 µM (active)
IC50 [16]: 7.51 µM (active)

CCOP(=S)(OCC)Oc1ncn(-c2ccccc2)n1 [TRIAZOPHOS]
AC50 [17]: 11.2 µM (inconclusive)

COc1cc(C(=O)Nc2cccc(C)c2C)c(Br)c(OC)c1OC
IC50 [18]: 0.633 µM (active)

CCOc1ccc(CCNC(=O)CS(=O)(=O)Cc2nc(-c3ccc(OC)cc3)oc2C)cc1
IC50 [19]: 9.1 µM (active)
IC50 [20]: > 80 µM (inactive)
IC50 [21]: 26.8 µM (inactive)

CCNC1=C(Cl)C(=O)c2ccccc2C1=O
IC50 [22]: > 50 µM (not active)
AC50 [23]: 3.84 µM (active)
AC50 [6]: 6.98 µM (active)
EC50 [8]: 20 µM (active)
EC50 [24]: > 104 µM (inactive)
